The values below are quoted from earlier work in patent US6716451B1 (Soft Gel Technologies, Inc., priority 1999, dated 2004).

Read-outs that look alike come from different tables or passages of the source.

One series concerns human breast cancer cell. As to conditions: in vitro.
The conditions of series [1]: subjects taking at least 100 IU daily; more than 12,000 adults.

On to `CC(C)=CCC/C(C)=C/CC/C(C)=C/CC[C@]1(C)CCc2cc(O)c(C)c(C)c2O1` [γ-tocotrienol], for which the “inhibition of growth of human breast cancer cells compared with Tamoxifen” value with human breast cancer cell is on record as “more effectively than the popular breast cancer drug, Tamoxifen”.

With Vitamin E, the adverse effects result (50 mg/day for 1 to 8.2 years, cardiovascular clinical studies) is given as “without any adverse effects” and the adverse effects entry (oral 50 to 400 IU per day, double-blind clinical studies) is recorded as “did not show any adverse effects”. Further, the “decrease in heart disease risk” value in series [1] was 40%.
